Among the test systems are YCL025C; BY4741; YNL142W; YBR084C-A; YCR005C; YKL103C.
Holding throughout (assay): GFP reporter expression in transducer deletion yeast, mechanism study for yeast TOR pathway modulator project, S. cerevisiae, transducer mutant strains, GFP-tagged proteins (AID 504481);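 also: 1 = DMSO wells as ratio of mean channel GFP fluorescence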
Settings in all cases: S. cerevisiae transducer mutants, GFP-fusion expression, flow cytometry, 3 h

The structures appear in SMILES notation. The source made the active and inactive calls.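 The calls were made as follows: active = fold change below 0.65 in a panel strain, matching the primary screen cutoff; inactive = the rest.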

For `CC1=NN(c2ccccc2)C(=O)C1C(c1ccccc1[N+](=O)[O-])C(C#N)C#N` (stereo unspecified), the fold change in the test on YCL025C was 0.965 (inactive); in the test on BY4741 it was 1.12 (inactive); in the test on YNL142W, 1.1 (inactive); with YBR084C-A it was 1.09 (inactive); in the test on YCR005C, 1 (inactive); with YKL103C it was 1.82.

With `O=S(=O)(CCN(CCS(=O)(=O)C(F)(F)F)CC1CCCO1)C(F)(F)F` (stereo unspecified), the fold change was 0.948 (inactive) in the test on YCL025C; 0.957 (inactive) in the test on BY4741; 0.965 (inactive) in the test on YNL142W; 0.989 (inactive) in the test with YBR084C-A; 1.23 (inactive) in the test on YCR005C; 1.89 with YKL103C.

On to `Cc1ccc(C2=NOC(=O)/C2=C\c2ccc(C)o2)cc1`, for which the fold change in the test with YCL025C is 0.812 (inactive); with BY4741 it was 1.8 (inactive); in the test on YNL142W it was 1.11 (inactive); with YBR084C-A it was 0.943 (inactive); with YCR005C it was 1.25 (inactive); in the test with YKL103C it was 1.2 (inactive).

`CC(C)(C)n1nc(-c2ccc(Cl)cc2)c2c(N)ncnc21`: the fold change with YCL025C is 0.899 (inactive); in the test on BY4741, 0.757 (inactive); in the test on YNL142W, 0.924 (inactive); in the test on YBR084C-A it was 0.489; with YCR005C, 0.358 (inactive); in the test on YKL103C, 1.03 (inactive).

Take `O=C1ON=C(c2ccccc2)/C1=C\c1ccco1`: the fold change in the test with YCL025C is 1 (inactive); in the test with BY4741, 0.924 (inactive); with YNL142W, 1.13 (inactive); in the test on YBR084C-A, 0.921 (inactive); in the test with YCR005C, 1.28 (inactive); with YKL103C, 1.95.

As to `CSC1=NS(=O)(=O)c2c(C)nn(C)c2S1`, the fold change was 0.969 (inactive) in the test on YCL025C; 0.902 (inactive) with BY4741; 0.896 (inactive) in the test on YNL142W; 0.857 (inactive) in the test with YBR084C-A; 0.841 (inactive) in the test with YCR005C; 1.3 (inactive) in the test on YKL103C.

In the case of `O=C(OCC(=O)N1CCN(C(=O)c2ccco2)CC1)c1cc(-c2cccc(Br)c2)nc2ccccc12`, the fold change in the test with YCL025C is 1.14 (inactive); in the test on BY4741 it was 0.913 (inactive); with YNL142W it was 1.05 (inactive); with YBR084C-A, 0.779 (inactive); in the test with YCR005C, 1.29 (inactive); in the test on YKL103C, 1.33 (inactive).

In the case of `O=C(OCn1ncc(Br)c(Br)c1=O)c1ccc(F)cc1`, the fold change in the test with YCL025C is 0.996 (inactive); in the test with BY4741, 0.946 (inactive); with YNL142W, 1.06 (inactive); in the test with YBR084C-A, 1.02 (inactive); in the test on YCR005C, 1.68; in the test with YKL103C, 1.76.

As for `Cc1ccc(S(=O)(=O)c2ccc([N+](=O)[O-])cn2)cc1`, the fold change with YCL025C was 1.17 (inactive); with BY4741 it was 1.05 (inactive); with YNL142W it was 1.36 (inactive); in the test on YBR084C-A, 0.894 (inactive); in the test with YCR005C it was 1.62; in the test on YKL103C, 1.65.

`Cc1ccc(C(c2cc(Cl)c3cccnc3c2O)N2CCN(C)CC2)cc1` (stereo unspecified): the fold change in the test with YCL025C is 1.06 (inactive); with BY4741 it was 0.978 (inactive); in the test with YNL142W it was 1.03 (inactive); with YBR084C-A, 1.03 (inactive); with YCR005C, 0.889 (inactive); in the test with YKL103C, 1.8.

On to `O=[N+]([O-])c1cc(S(=O)(=O)C(F)(F)F)ccc1Sc1nc2ccccc2s1`, for which the fold change in the test on YCL025C is 1.09 (inactive); in the test with BY4741, 1.03 (inactive); in the test on YNL142W, 1.02 (inactive); in the test with YBR084C-A, 1.03 (inactive); in the test on YCR005C it was 1.09 (inactive); with YKL103C, 2.03.

For the molecule `CC(=O)SC(C[N+](=O)[O-])c1cn(C(C)=O)c2ccccc12` (stereo unspecified), the fold change with YCL025C was 0.77 (inactive); in the test on BY4741 it was 1 (inactive); in the test on YNL142W, 0.785 (inactive); with YBR084C-A, 1.08 (inactive); with YCR005C, 0.93 (inactive); in the test with YKL103C, 1.48 (inactive).

`COc1ccc(C(=O)NNC(=S)NC(=O)/C=C/c2cccs2)cc1`: the fold change was 1.38 (inactive) with YCL025C; 1.03 (inactive) in the test with BY4741; 1.13 (inactive) in the test on YNL142W; 1.23 (inactive) in the test with YBR084C-A; 1.07 (inactive) in the test on YCR005C; 1.51 in the test on YKL103C.

Consider `Cc1cc(C(=O)Nc2nc(-c3ccccn3)cs2)ccc1[N+](=O)[O-]`, for which the fold change is 0.981 (inactive) in the test on YCL025C; 0.913 (inactive) with BY4741; 0.965 (inactive) in the test with YNL142W; 0.967 (inactive) in the test with YBR084C-A; 0.918 (inactive) in the test on YCR005C; 1.01 (inactive) with YKL103C.

For `CC(C)(C)C(=O)C(Cl)C(=O)Nc1ccccc1` (stereo unspecified), the fold change with YCL025C was 1.11 (inactive); in the test with BY4741, 1 (inactive); with YNL142W, 1.36 (inactive); in the test on YBR084C-A it was 0.877 (inactive); with YCR005C, 1.44 (inactive); with YKL103C, 2.24.

On to `CN1CCN(C(c2ccc(C(F)(F)F)cc2)c2ccc3cccnc3c2O)CC1` (stereo unspecified), for which the fold change was 0.972 (inactive) in the test with YCL025C; 0.87 (inactive) with BY4741; 0.91 (inactive) in the test with YNL142W; 0.878 (inactive) with YBR084C-A; 0.725 (inactive) in the test on YCR005C; 1.35 (inactive) with YKL103C.

In the case of `CO[C@H]1C[C@@H]2CC[C@@H](C)[C@@](O)(O2)C(=O)C(=O)N2CCCC[C@H]2C(=O)O[C@H]([C@H](C)C[C@@H]2CC[C@@H](O)[C@H](OC)C2)CC(=O)[C@H](C)/C=C(\C)[C@@H](O)[C@@H](OC)C(=O)[C@H](C)C[C@H](C)/C=C/C=C/C=C/1C`, the fold change was 2.29 in the test with YCL025C; 1.12 (inactive) in the test with BY4741; 12.2 with YNL142W; 0.616 in the test on YBR084C-A; 3.51 with YCR005C; 2.54 in the test with YKL103C.

On to `c1ccc(-c2cccc(-c3ccccn3)n2)nc1`, for which the fold change in the test on YCL025C was 0.958 (inactive); in the test on BY4741 it was 0.815 (inactive); with YNL142W it was 0.833 (inactive); in the test with YBR084C-A, 0.903 (inactive); in the test with YCR005C, 0.73 (inactive); in the test with YKL103C it was 1.41 (inactive).

On to `COc1ccc(/C=C/C(=O)NC(=S)NNC(=O)c2cnccn2)cc1`, for which the fold change with YCL025C is 1.01 (inactive); in the test with BY4741, 1.19 (inactive); with YNL142W, 1.27 (inactive); in the test on YBR084C-A, 0.936 (inactive); in the test on YCR005C, 1.05 (inactive); with YKL103C it was 1.51.

With `O=[N+]([O-])c1ccc(O)c2ncccc12`, the fold change was 1.47 (inactive) with YCL025C; 1.48 (inactive) in the test on BY4741; 1.26 (inactive) in the test on YNL142W; 1.19 (inactive) in the test on YBR084C-A; 1.21 (inactive) with YCR005C; 2.22 in the test on YKL103C.

As to `N/C(Cc1ccc(Cl)cc1)=N\OC(=O)c1cccc2ccccc12`, the fold change was 0.919 (inactive) in the test with YCL025C; 1.27 (inactive) with BY4741; 1.22 (inactive) with YNL142W; 0.913 (inactive) in the test on YBR084C-A; 2.47 in the test on YCR005C; 1.44 (inactive) with YKL103C.

With `C/C(=N\NC(=O)c1ccc(C(C)(C)C)cc1)c1ccccn1`, the fold change is 1 (inactive) with YCL025C; 0.905 (inactive) with BY4741; 0.97 (inactive) in the test with YNL142W; 0.975 (inactive) in the test with YBR084C-A; 1.47 (inactive) in the test on YCR005C; 0.921 (inactive) with YKL103C.

For `O=C(Oc1ccnc2cc(Cl)ccc12)N1CCCCCC1`, the fold change with YCL025C is 1.78; with BY4741, 0.878 (inactive); with YNL142W it was 1.97; in the test on YBR084C-A, 1.09 (inactive); in the test on YCR005C, 0.6 (inactive); in the test on YKL103C, 0.97 (inactive).

Regarding `O=C(Oc1c(Cl)cc(Cl)c2cccnc12)c1ccco1`, the fold change in the test on YCL025C is 0.784 (inactive); with BY4741 it was 1.03 (inactive); in the test with YNL142W it was 0.881 (inactive); with YBR084C-A, 1.14 (inactive); with YCR005C, 1.2 (inactive); with YKL103C, 1.37 (inactive).

As for `O=C(NC(=S)NNC(=O)c1cnccn1)c1ccc(F)cc1`, the fold change in the test on YCL025C was 1.02 (inactive); in the test with BY4741 it was 1.1 (inactive); in the test on YNL142W, 1.23 (inactive); with YBR084C-A it was 0.875 (inactive); in the test on YCR005C, 0.816 (inactive); in the test with YKL103C, 1.54.

In the case of `CCCOc1ccc(C(=O)NNC(=S)NC(=O)CC)cc1`, the fold change was 1.05 (inactive) in the test with YCL025C; 1.77 (inactive) in the test with BY4741; 1.17 (inactive) with YNL142W; 1.22 (inactive) in the test with YBR084C-A; 1.21 (inactive) with YCR005C; 2.42 with YKL103C.

The record behind these values is PubChem BioAssay AID504481 (NMMLSC, 2011).
